Source: patent publication US20210087240A1, “BLOCKING GARP CLEAVAGE AND METHODS OF USE THEREOF” (MUSC FOUNDATION FOR RESEARCH DEVELOPMENT, priority 2017, published 2021)
Substitutions are numbered along the chain they refer to.

Experiments:
[1] = tested on: thrombin activated platelets; test: Flow cytometry of surface GARP/LAP on platelets stimulated with thrombin; assay type: cell-based, murine
Protocol: (§1) FIGS. 7A-7G: Direct thrombin inhibitor Dabigatran Etexilate reduces platelet GARP expression and protects against melanoma and colon cancer. (A) Flow cytometry analysis of surface GARP/LAP complex on murine WT platelets stimulated with and without thrombin and Dabigratan Etexilate. (B) Tumor growth curves of mice subcutaneously injected with B16-F1 melanoma cells and daily treated with 3 mg/mouse of Dabigratan Etexilate. (C) Tumor growth curves of mice subcutaneously injected with MC38 colon cancer cells and daily treated with 3 mg/mouse of Dabigratan Etexilate. (D) Serum was obtained from tumor bearing MC38 colon cancer and active (D) and total TGF-β (E) was measured by ELISA. (F) Serum was obtained from tumor bearing MC38 colon cancer and soluble GARP was measured by ELISA. (G) Percentage of regulatory T cells CD25+ FOXP3+ in the CD4+ tumor-infiltrating CD4+ lymphocytes (TIL) from the indicated mice.
(§2) Now, to establish the clinical relevance of the Thrombin-GARP/TGF-β axis, the direct thrombin inhibitor, Dabigatran Etexilate was employed. […] The anti-tumor efficacy of Dabigatran Etexilate was tested in 2 different tumor models. […] As a further proof of the mechanism employed by dabigatran to exert its antitumor activity, serum active and total TGF-β, and serum GARP concentrations were assessed by ELISA.

B16-F1 melanoma cells = test: B16-F1 melanoma tumor growth in mice; assay type: in vivo; details: subcutaneous B16-F1, daily 3 mg/mouse, no adoptive T cell transfer
Protocol: as §1
(§3) (A) Tumor growth curves of mice subcutaneously injected with MC38 colon cancer cells and daily treated with 3 mg/mouse of Dabigatran etexilate. […]
(§4) Now, to establish the clinical relevance of the Thrombin-GARP/TGF-β axis, the direct thrombin inhibitor, Dabigatran Etexilate was employed. […] As a further proof of the mechanism employed by dabigatran to exert its antitumor activity, serum active and total TGF-β, and serum GARP concentrations were assessed by ELISA.

MC38 colon cancer cells [2] = test: MC38 colon cancer tumor growth in mice; assay type: in vivo; details: subcutaneous MC38, daily 3 mg/mouse
Protocol: as §1, §3, §4

TGF-β = test: Serum active and total TGF-β ELISA in MC38 tumor bearing mice; assay type: in vivo
Protocol: as §1, §2

soluble GARP = test: Serum soluble GARP ELISA in MC38 tumor bearing mice; assay type: in vivo
Protocol: as §1, §2

[3] = tested on: regulatory T cells CD25+ FOXP3+; test: Regulatory T cells among tumor-infiltrating CD4+ lymphocytes; assay type: in vivo, mice; details: CD25+ FOXP3+ in CD4+ TIL
Protocol: as §1, §2

MC38 colon cancer cells [4] = test: Dabigatran and PD1 blocking antibody combination therapy in MC38 tumor model; assay type: in vivo, mice; details: dabigatran 3 mg/mouse daily oral gavage, 200 μg anti-PD1 every 3 days from day 8
Source text: (A) Experimental design for Dabigatran and PD1 blocking antibody combination therapy. (B) Tumor growth curves of mice subcutaneously injected with MC38 colon cancer cells and treated with Dabigatran alone, with PD1 blocking antibody, with the combination of Dabigatran and PD1 blocking antibody or left untreated. (C) Survival curve in MC38-bearing mice treated with Dabigatran alone, with PD1 blocking antibody, with the combination of Dabigatran and PD1 blocking antibody or left untreated. Repeated measurement 2 way Anova was performed in B. Log-rank (Mantel-Cox) was performed in C. (D) Serum was collected from the mice under the dual treatment and analyzed for TGFβ concentration by TGFβ ELISA. (E) Platelets count of the mice under dual treatment. Repeated measurement 2-way ANOVA was performed in B. Log-rank (Mantel-Cox) was performed in C. Two-tailed, independent Student's t-test was used in panel D and E.
Next, Dabigatran was used in combination with PD1 blockade to block thrombin and consequentially platelet activation to achieve both a reduction of systemic and circulating TGF-β, and the abrogation of platelet-mediated tumor support. Platelets, indeed, secrete many other factors beyond TGF-β that facilitate tumor immune evasion. Animals harboring palpable tumors were daily treated with 3 mg/mouse dabigatran by oral gavage. […]

TGFβ = TGFβ ELISA on serum of WT B6 mice treated for one week; assay type: in vivo; details: one week daily gavage of 3 mg/mouse
Protocol: (A) Tumor growth curves of mice subcutaneously injected with MC38 colon cancer cells and daily treated with 3 mg/mouse of Dabigatran etexilate. (B) Tumor growth curves of mice subcutaneously injected with B16-F1 melanoma cells and daily treated with 3 mg/mouse of Dabigatran etexilate. (C) TGFβ ELISA on serum of WT B6 mice treated for one week with daily gavage of 3 mg/mouse of Dabigatran etexilate. Repeated measurement 2-way ANOVA was performed in A and B.

thrombin = test: Competition assay: GARP expressing PreB cells digested with thrombin, western blot; assay type: cell-based; details: 4 μg thrombin
Source text: FIGS. 12A-12E: Thrombin cleaves GARP at the amino acid position 267 and 286 between proline and arginine. (A) Surface Flow cytometry analysis for GARP of WT PreB cells and GARP expression in PreB cells expressing WT GARP, GARP with single point mutation 267 aa, GARP with single point mutation 286 aa, GARP with double point mutation 267/286 aa (DM), and relative control vector. (B) Western Blot analysis of cells lysates and conditioned media of PreB cells expressing WT GARP, GARP with single point mutation 267 aa, GARP with single point mutation 286 aa, or GARP with double point mutation 267/286 aa using antibody against GARP. (C) PreB cells expressing WT or DM GARP were digested with increasing concentration of thrombin (0, 1, 2, and 4 μg in 25 μl), followed by western blot analysis. (D) Recombinant fragment of GARP containing the two Proline Arginine thrombin binding sites (T250; SEQ ID NO:1). (E) Western blotting analysis of GARP expressing PreB cells digested with 4 μg of thrombin in presence and absence of 4 μg of T250.
Thus, 3 types of mutants: PR 267-268AA (GARP 267), PR 286-287AA (GARP 286), and double mutant (DM) PR 267-268AA PR 286-287AA (GARP 267-286, -DM) were generated. […] Next, it tested whether GARP-DM was resistant to the cleavage of exogenous thrombin. To this end, PreB GARP-WT and PreB GARP-DM were treated with increasing concentrations of thrombin.

[5] = tested on: T1, GARP (Glycoprotein-A Repetitions Predominant Protein), wild type, expressed on PreB cells
T1 sequence: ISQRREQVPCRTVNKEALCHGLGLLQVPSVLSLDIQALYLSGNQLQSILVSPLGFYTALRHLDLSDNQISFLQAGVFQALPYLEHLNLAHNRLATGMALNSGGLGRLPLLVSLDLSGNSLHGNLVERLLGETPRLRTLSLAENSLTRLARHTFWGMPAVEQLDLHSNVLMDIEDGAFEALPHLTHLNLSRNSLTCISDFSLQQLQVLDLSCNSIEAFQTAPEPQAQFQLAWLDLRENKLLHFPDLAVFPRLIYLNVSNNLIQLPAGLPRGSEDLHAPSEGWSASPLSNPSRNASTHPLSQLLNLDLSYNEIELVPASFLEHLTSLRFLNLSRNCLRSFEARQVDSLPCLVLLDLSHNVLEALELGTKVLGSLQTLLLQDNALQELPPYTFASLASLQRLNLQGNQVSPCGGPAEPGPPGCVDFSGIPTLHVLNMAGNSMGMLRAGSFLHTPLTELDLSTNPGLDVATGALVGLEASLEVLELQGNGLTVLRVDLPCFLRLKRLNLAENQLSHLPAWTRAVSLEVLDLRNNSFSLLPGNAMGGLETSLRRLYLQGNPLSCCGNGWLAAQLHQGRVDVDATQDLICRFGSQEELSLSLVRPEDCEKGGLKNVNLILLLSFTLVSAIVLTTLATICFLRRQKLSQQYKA

[6] = tested on: T2, GARP double mutant (DM) PR 267-268AA PR 286-287AA, expressed on PreB cells
T2 sequence: T1 sequence with P249A, R250A, P268A, R269A

[7] = tested on: recombinant form of soluble GARP (sGARP) where the transmembrane domain was replaced by IgG1 Fc fragment

## CCCCCCOC(=O)NC(=N)c1ccc(NCc2nc3cc(C(=O)N(CCC(=O)OCC)c4ccccn4)ccc3n2C)cc1 [Dabigatran, Dabigatran Etexilate]
[1]
  GARP expression on platelets: increase of GARP expression on platelets can be neutralized
B16-F1 melanoma cells
  B16-F1 tumor growth: reduced B16-F1 tumor aggressiveness
MC38 colon cancer cells [2]
  MC38 tumor growth: sufficient to decrease the rate of tumor growth
MC38 colon cancer cells [2]; listed as Dabigatran etexilate
  MC38 tumor growth: has anti-cancer effect in MC38 colorectal cancer
TGF-β
  serum total TGF-β: reduced serum total TGF-β
TGF-β; difference to untreated not statistically significant
  serum active TGF-β, mean: 42.47±23.73
Soluble GARP
  serum soluble GARP: impairs the release of serum soluble GARP from platelets
[3]
  TGF-β mediated induction of Tregs in the tumor microenvironment: reduces the TGF-β mediated induction of Tregs
MC38 colon cancer cells [4]
  tumor growth: effective in reducing tumor growth
TGFβ
  systemic active TGFβ: decreases systemic active TGFβ

## T250: Recombinant fragment of GARP containing the two Proline Arginine thrombin binding sites; DLRENKLLHFPDLAVFPRLIYLNVSNNLIQLPAGLPRGSEDLHAPSEGWSA (SEQ ID NO:1) (GARP peptide)
thrombin; 4 μg T250
  competition with surface GARP in binding with thrombin: competed with surface GARP in binding with thrombin
thrombin; in presence of exogenous thrombin, 4 μg T250, western blot
  GARP cleavage: able to reduce GARP cleavage

## thrombin
[5]
  western blot after digestion of PreB GARP-WT with increasing concentrations of thrombin: Both 44 and 29 KD fragments increased in a dose dependent fashion in GARP-WT
[6]
  western blot after digestion of PreB GARP-DM with increasing concentrations of thrombin: no cleaved products were observed in GARP-DM
[7]
  western blot of soluble GARP digested with increasing concentrations of thrombin: digestion of soluble GARP with thrombin gave rise to 3 fragments: GARP full length (72 KD), and the 2 smaller fragments of 44 and 29 KD
